Active and inactive are the calls of the source. No rule for the calls is given here.
Tested on: rodent lifetime carcinogenesis bioassay, tumor incidence TD50
Experiment: chronic cancer bioassays in animals – CPDB, compiled studies (AID 1745844)

In the case of `COc1ccccc1[N+](=O)[O-]`, the TD50 (mouse, strain B6C3F1, females, in feed, site: all sites, lesion: malignant lymphoma, histiocytic type + malignant lymphoma, mixed type + malignant lymphoma, lymphocytic type + malignant lymph, dosed 103 weeks, study length 104 weeks) is reported as 153 mg/kg/day, the TD50 (mouse, strain B6C3F1, females, in feed, site: any site (literature study), lesion: several types, types named in the paper, dosed 103 weeks, study length 104 weeks) is reported as 350 mg/kg/day and the TD50 (mouse, strain B6C3F1, females, in feed, site: liver, lesion: hepatocellular adenoma + hepatoblastoma + hepatocellular carcinoma, dosed 103 weeks, study length 104 weeks) is reported as 194 mg/kg/day. It also gave a TD50 (mouse, strain B6C3F1, females, in feed, site: liver, lesion: hepatocellular adenoma + hepatocellular carcinoma, dosed 103 weeks, study length 104 weeks) of 194 mg/kg/day, a TD50 (mouse, strain B6C3F1, females, in feed, site: liver, lesion: hepatocellular adenoma, dosed 103 weeks, study length 104 weeks) of 179 mg/kg/day and a TD50 (mouse, strain B6C3F1, males, in feed, site: any site (literature study), lesion: several types, types named in the paper, dosed 103 weeks, study length 104 weeks) of 43500 mg/kg/day. The TD50 (mouse, strain B6C3F1, males, in feed, site: liver, lesion: hepatoblastoma + hepatocellular carcinoma, dosed 103 weeks, study length 104 weeks) was 391 mg/kg/day, the TD50 (mouse, strain B6C3F1, males, in feed, site: liver, lesion: hepatoblastoma, dosed 103 weeks, study length 104 weeks) was 428 mg/kg/day and the TD50 (mouse, strain B6C3F1, males, in feed, site: liver, lesion: hepatocellular adenoma + hepatoblastoma + hepatocellular carcinoma, dosed 103 weeks, study length 104 weeks) was 198 mg/kg/day. For the same compound, the TD50 (mouse, strain B6C3F1, males, in feed, site: liver, lesion: hepatocellular adenoma + hepatocellular carcinoma, dosed 103 weeks, study length 104 weeks) was 208 mg/kg/day, the TD50 (mouse, strain B6C3F1, males, in feed, site: liver, lesion: hepatocellular adenoma, dosed 103 weeks, study length 104 weeks) was 177 mg/kg/day and the TD50 (rat, strain Fischer 344, females, in feed, site: all sites, lesion: mononuclear-cell leukemia, dosed 103 weeks, study length 104 weeks) was 152 mg/kg/day. It also gave a TD50 (rat, strain Fischer 344, females, in feed, site: any site (literature study), lesion: several types, types named in the paper, dosed 27 weeks, study length 104 weeks) of 10.7 mg/kg/day, a TD50 (rat, strain Fischer 344, females, in feed, site: any site (literature study), lesion: several types, types named in the paper, dosed 103 weeks, study length 104 weeks) of 336 mg/kg/day and a TD50 (rat, strain Fischer 344, females, in feed, site: colon, lesion: adenomatous polyp, dosed 27 weeks, study length 104 weeks) of 60.9 mg/kg/day. The TD50 (rat, strain Fischer 344, females, in feed, site: colon, lesion: carcinoma, dosed 27 weeks, study length 104 weeks) was 1300 mg/kg/day, the TD50 (rat, strain Fischer 344, females, in feed, site: forestomach, lesion: squamous-cell carcinoma + squamous-cell papilloma, dosed 103 weeks, study length 104 weeks) was 1270 mg/kg/day and the TD50 (rat, strain Fischer 344, females, in feed, site: forestomach, lesion: squamous-cell papilloma, dosed 103 weeks, study length 104 weeks) was 3270 mg/kg/day. It also gave a TD50 (rat, strain Fischer 344, females, in feed, site: kidney + large intestine + urinary bladder, lesion: transitional-cell carcinoma + transitional-cell papilloma + adenomatous polyp + carcinoma + sarcoma + squamous-cell carcinoma + squa, dosed 27 weeks, study length 104 weeks) of 12.9 mg/kg/day, a TD50 (rat, strain Fischer 344, females, in feed, site: kidney, lesion: transitional-cell carcinoma + transitional-cell papilloma, dosed 27 weeks, study length 104 weeks) of 1240 mg/kg/day and a TD50 (rat, strain Fischer 344, females, in feed, site: kidney, lesion: transitional-cell carcinoma, dosed 27 weeks, study length 104 weeks) of 3550 mg/kg/day. For the same compound, the TD50 (rat, strain Fischer 344, females, in feed, site: kidney, lesion: transitional-cell papilloma, dosed 27 weeks, study length 104 weeks) was 1890 mg/kg/day, the TD50 (rat, strain Fischer 344, females, in feed, site: large intestine, lesion: adenomatous polyp + carcinoma, dosed 27 weeks, study length 104 weeks) was 55 mg/kg/day and the TD50 (rat, strain Fischer 344, females, in feed, site: large intestine, lesion: adenomatous polyp, dosed 27 weeks, study length 104 weeks) was 55 mg/kg/day. For the same compound, the TD50 (rat, strain Fischer 344, females, in feed, site: large intestine, lesion: carcinoma, dosed 27 weeks, study length 104 weeks) was 1300 mg/kg/day, the TD50 (rat, strain Fischer 344, females, in feed, site: liver, lesion: hepatocellular adenoma + hepatoblastoma + hepatocellular carcinoma, dosed 103 weeks, study length 104 weeks) was 1010 mg/kg/day and the TD50 (rat, strain Fischer 344, females, in feed, site: liver, lesion: hepatocellular adenoma, dosed 103 weeks, study length 104 weeks) was 1010 mg/kg/day. It also gave a TD50 (rat, strain Fischer 344, females, in feed, site: lung, lesion: alveolar/bronchiolar adenoma, dosed 103 weeks, study length 104 weeks) of 666 mg/kg/day, a TD50 (rat, strain Fischer 344, females, in feed, site: rectum, lesion: adenomatous polyp, dosed 27 weeks, study length 104 weeks) of 560 mg/kg/day and a TD50 (rat, strain Fischer 344, females, in feed, site: urinary bladder, lesion: sarcoma, dosed 27 weeks, study length 104 weeks) of 192 mg/kg/day. The TD50 (rat, strain Fischer 344, females, in feed, site: urinary bladder, lesion: squamous-cell carcinoma + squamous-cell papilloma, dosed 27 weeks, study length 104 weeks) was 588 mg/kg/day, the TD50 (rat, strain Fischer 344, females, in feed, site: urinary bladder, lesion: squamous-cell carcinoma, dosed 27 weeks, study length 104 weeks) was 2700 mg/kg/day and the TD50 (rat, strain Fischer 344, females, in feed, site: urinary bladder, lesion: squamous-cell papilloma, dosed 27 weeks, study length 104 weeks) was 751 mg/kg/day. The TD50 (rat, strain Fischer 344, females, in feed, site: urinary bladder, lesion: transitional-cell carcinoma + transitional-cell papilloma, dosed 27 weeks, study length 104 weeks) was 13 mg/kg/day, the TD50 (rat, strain Fischer 344, females, in feed, site: urinary bladder, lesion: transitional-cell carcinoma, dosed 27 weeks, study length 104 weeks) was 13.2 mg/kg/day and the TD50 (rat, strain Fischer 344, females, in feed, site: urinary bladder, lesion: transitional-cell papilloma, dosed 27 weeks, study length 104 weeks) was 543 mg/kg/day. The TD50 (rat, strain Fischer 344, males, in feed, site: adrenal medulla, lesion: pheochromocytoma benign, bilateral + pheochromocytoma, benign, dosed 103 weeks, study length 104 weeks) was 89.6 mg/kg/day, the TD50 (rat, strain Fischer 344, males, in feed, site: adrenal medulla, lesion: pheochromocytoma benign, bilateral + pheochromocytoma, malignant + pheochromocytoma, benign, dosed 103 weeks, study length 104 weeks) was 109 mg/kg/day and the TD50 (rat, strain Fischer 344, males, in feed, site: all sites, lesion: mononuclear-cell leukemia, dosed 103 weeks, study length 104 weeks) was 25.9 mg/kg/day. It also gave a TD50 (rat, strain Fischer 344, males, in feed, site: any site (literature study), lesion: several types, types named in the paper, dosed 27 weeks, study length 104 weeks) of 3.97 mg/kg/day, a TD50 (rat, strain Fischer 344, males, in feed, site: any site (literature study), lesion: several types, types named in the paper, dosed 103 weeks, study length 104 weeks) of 21.4 mg/kg/day and a TD50 (rat, strain Fischer 344, males, in feed, site: cecum, lesion: adenomatous polyp, dosed 27 weeks, study length 104 weeks) of 21.3 mg/kg/day. The TD50 (rat, strain Fischer 344, males, in feed, site: colon, lesion: adenomatous polyp, dosed 27 weeks, study length 104 weeks) was 17.2 mg/kg/day, the TD50 (rat, strain Fischer 344, males, in feed, site: colon, lesion: carcinoma, dosed 27 weeks, study length 104 weeks) was 573 mg/kg/day and the TD50 (rat, strain Fischer 344, males, in feed, site: forestomach, lesion: squamous-cell carcinoma + squamous-cell papilloma, dosed 103 weeks, study length 104 weeks) was 304 mg/kg/day. The TD50 (rat, strain Fischer 344, males, in feed, site: forestomach, lesion: squamous-cell carcinoma, dosed 103 weeks, study length 104 weeks) was 715 mg/kg/day, the TD50 (rat, strain Fischer 344, males, in feed, site: forestomach, lesion: squamous-cell papilloma, dosed 103 weeks, study length 104 weeks) was 543 mg/kg/day and the TD50 (rat, strain Fischer 344, males, in feed, site: kidney + large intestine + urinary bladder, lesion: transitional-cell carcinoma + transitional-cell papilloma + adenomatous polyp + carcinoma + sarcoma + squamous-cell carcinoma + squa, dosed 27 weeks, study length 104 weeks) was 7.47 mg/kg/day. For the same compound, the TD50 (rat, strain Fischer 344, males, in feed, site: kidney, lesion: transitional-cell carcinoma + transitional-cell papilloma, dosed 27 weeks, study length 104 weeks) was 83.6 mg/kg/day, the TD50 (rat, strain Fischer 344, males, in feed, site: kidney, lesion: transitional-cell carcinoma, dosed 27 weeks, study length 104 weeks) was 90.9 mg/kg/day and the TD50 (rat, strain Fischer 344, males, in feed, site: kidney, lesion: transitional-cell papilloma, dosed 27 weeks, study length 104 weeks) was 1040 mg/kg/day. It also gave a TD50 (rat, strain Fischer 344, males, in feed, site: kidney, lesion: tubule adenoma + tubule carcinoma, dosed 103 weeks, study length 104 weeks) of 251 mg/kg/day, a TD50 (rat, strain Fischer 344, males, in feed, site: kidney, lesion: tubule adenoma, dosed 103 weeks, study length 104 weeks) of 435 mg/kg/day and a TD50 (rat, strain Fischer 344, males, in feed, site: kidney, lesion: tubule carcinoma, dosed 103 weeks, study length 104 weeks) of 612 mg/kg/day. It also gave a TD50 (rat, strain Fischer 344, males, in feed, site: large intestine, lesion: adenomatous polyp + carcinoma, dosed 27 weeks, study length 104 weeks) of 8.54 mg/kg/day, a TD50 (rat, strain Fischer 344, males, in feed, site: large intestine, lesion: adenomatous polyp, dosed 27 weeks, study length 104 weeks) of 8.58 mg/kg/day and a TD50 (rat, strain Fischer 344, males, in feed, site: large intestine, lesion: carcinoma, dosed 27 weeks, study length 104 weeks) of 573 mg/kg/day. It also gave a TD50 (rat, strain Fischer 344, males, in feed, site: liver, lesion: hepatocellular adenoma + hepatoblastoma + hepatocellular carcinoma, dosed 103 weeks, study length 104 weeks) of 330 mg/kg/day, a TD50 (rat, strain Fischer 344, males, in feed, site: preputial gland, lesion: carcinoma + carcinoma, bilateral, dosed 103 weeks, study length 104 weeks) of 195 mg/kg/day and a TD50 (rat, strain Fischer 344, males, in feed, site: rectum, lesion: adenomatous polyp, dosed 27 weeks, study length 104 weeks) of 51.8 mg/kg/day. The TD50 (rat, strain Fischer 344, males, in feed, site: testis, lesion: interstitial-cell adenoma, bilateral + interstitial-cell adenoma, dosed 103 weeks, study length 104 weeks) was 21.3 mg/kg/day, the TD50 (rat, strain Fischer 344, males, in feed, site: urinary bladder, lesion: sarcoma, dosed 27 weeks, study length 104 weeks) was 292 mg/kg/day and the TD50 (rat, strain Fischer 344, males, in feed, site: urinary bladder, lesion: squamous-cell carcinoma + squamous-cell papilloma, dosed 27 weeks, study length 104 weeks) was 273 mg/kg/day. For the same compound, the TD50 (rat, strain Fischer 344, males, in feed, site: urinary bladder, lesion: squamous-cell carcinoma, dosed 27 weeks, study length 104 weeks) was 422 mg/kg/day, the TD50 (rat, strain Fischer 344, males, in feed, site: urinary bladder, lesion: squamous-cell papilloma, dosed 27 weeks, study length 104 weeks) was 482 mg/kg/day and the TD50 (rat, strain Fischer 344, males, in feed, site: urinary bladder, lesion: transitional-cell carcinoma + transitional-cell papilloma, dosed 27 weeks, study length 104 weeks) was 7.48 mg/kg/day. The TD50 (rat, strain Fischer 344, males, in feed, site: urinary bladder, lesion: transitional-cell carcinoma, dosed 27 weeks, study length 104 weeks) was 8.28 mg/kg/day and the TD50 (rat, strain Fischer 344, males, in feed, site: urinary bladder, lesion: transitional-cell papilloma, dosed 27 weeks, study length 104 weeks) was 75.6 mg/kg/day.
`C[C@]12C=CC(=O)C=C1CC[C@@H]1[C@@H]2[C@@H](O)C[C@@]2(C)[C@H]1CC[C@]2(O)C(=O)COC(=O)CCCc1ccc(N(CCCl)CCCl)cc1` was tested, and the TD50 (rat, strain Sprague-Dawley, females, by gavage, site: any site (literature study), lesion: benign tumor, dosed 78 weeks, study length 104 weeks) was 14 mg/kg/day (inactive), the TD50 (rat, strain Sprague-Dawley, females, by gavage, site: any site (literature study), lesion: malignant tumor, dosed 78 weeks, study length 104 weeks) was 21.6 mg/kg/day (inactive) and the TD50 (rat, strain Sprague-Dawley, females, by gavage, site: external auditory canal, lesion: squamous-cell carcinoma, dosed 78 weeks, study length 104 weeks) was 19.2 mg/kg/day.
`NCCS(=O)(=O)O` was tested, and the carcinogen call (rat, strain Wistar, females, in feed, site: mammary gland, lesion: fibroadenoma, dosed 78 weeks, study length 78 weeks) was “negative (inactive)” and the carcinogen call (rat, strain Wistar, males, in feed, site: mammary gland, lesion: fibroadenoma, dosed 78 weeks, study length 78 weeks) was “negative (inactive)”.
Compound `CC(=O)Nc1ccc(S(=O)(=O)c2ccc(NC(C)=O)cc2)cc1` has a TD50 (rat, strain Buffalo, females, in feed, site: mammary gland, lesion: adenocarcinoma, dosed 43 weeks, study length 92 weeks) of 55.6 mg/kg/day.
With `CC1=C2C(=CO[C@H](C)[C@H]2C)C(=O)C(C(=O)O)=C1O` the carcinogen call (rat, strain Fischer 344, males, in feed, site: kidney, lesion: clear-cell adenoma, dosed 60 weeks, study length 60 weeks) was “positive” and the carcinogen call (rat, strain Fischer 344, males, in feed, site: kidney, lesion: clear-cell adenoma, dosed 80 weeks, study length 80 weeks) was “positive”.
Work on `CC(N)=S` yielded a TD50 (mouse, strain ICR, males, in feed, site: liver, lesion: hepatocellular carcinoma, dosed 40 weeks, study length 88 weeks) of 15.3 mg/kg/day, a TD50 (mouse, strain ICR, males, in feed, site: liver, lesion: hyperplastic nodule, dosed 40 weeks, study length 88 weeks) of 12 mg/kg/day and a TD50 (mouse, strain Swiss, females, in feed, site: liver, lesion: hepatoma, dosed 65 weeks, study length 65 weeks) of 5.36 mg/kg/day. The carcinogen call (mouse, strain Swiss, males, in feed, site: liver, lesion: hepatoma, dosed 65 weeks, study length 65 weeks) was “positive”, the TD50 (rat, strain Donryu, males, in feed, site: liver, lesion: hepatocellular carcinoma, trabecular, dosed 40 weeks, study length 80 weeks) was 21.8 mg/kg/day and the TD50 (rat, strain Donryu, males, in feed, site: liver, lesion: papillary adenocarcinoma, dosed 40 weeks, study length 80 weeks) was 27.6 mg/kg/day. For the same compound, the TD50 (rat, strain Donryu, males, in feed, site: liver, lesion: several types, types named in the paper, dosed 40 weeks, study length 80 weeks) was 11.5 mg/kg/day.
